{"source": "patent US9216956B2", "about": "“Deuterium-enriched 4-hydroxy-5-methoxy-N,1-dimethyl-2-oxo-N-[(4-trifluoro-methyl)phenyl]-1,2-dihydroquinoline-3-carboxamide” (ACTIVE BIOTECH AB, priority 2011, dated 2015)", "key": {"CYP1A1": {"test_system": "CYP1A1", "assay": "In vivo CYP1A1 induction in rat, EROD activity of liver microsomes", "description": "(§1) The in vivo induction of CYP1A1 and CYP1A2 after repeated administration of ABR-215050 and of ABR-215050-dx, respectively, was studied in rat.\n(§2) Test preparations B and C and blank preparation A were made as follows: For preparation B, ABR-215050 was dissolved in NaOH and sterile water at a concentration of 0.5 mg/mL. The pH of the solution was adjusted to pH 7.4-8.5. Preparation C was made in the same way, using ABR-215050-dx. Preparation A was a blank containing only water. The preparations were stored in a refrigerator for a maximum of one week before use.\n(§3) On arrival at the laboratory, the test animals were 9 weeks old Sprague Dawley male rats having a body weight of 250 g. They were divided into 3 groups and were allowed to acclimatize for at least 7 days before the test. During the whole acclimatization and test period, the animals received water and feed (Labfor R70, form Kimstad, Sweden) ad libitum, and were kept under a 12 hours dark/12 hours light cycle, at a temperature of 20±2° C. and a relative humidity of 50±15%.\n(§4) Before administration of any test preparation, the body weight of each animal was measured and the individual dose to be administered to an animal was determined based on the weight of the animal. Administration was performed perorally during 4 days, cf.\n(§5) At 24 h after administration of the final dose, the animals were weighed and from each animal a final blood sample was withdrawn for a pharmacokinetic analysis. The animals then were euthanized and from each one the liver was withdrawn, weighed, and immediately frozen in crushed dry ice. The livers then were stored at −70° C. until preparation of microsomes.\n(§6) Microsomes were prepared according to the method M-0287 “Preparation of subcellular fractions from animal tissues” and then kept at −70° C. until analysis.\n(§7) The total protein concentration of the microsomal fraction was determined according to the method M-0289 “Determination of Protein according to Hartree”."}, "LNCaP tumor": {"test_system": "LNCaP tumor", "assay": "Anti-tumor effect on subcutaneous LNCaP-19 tumor in Nude BALB/c mice", "type": "in vivo, mouse", "conditions": "10 mg/kg/day via drinking water from day 7", "description": "The anti-tumor effect of deuterated ABR-215050 was studied in mouse.\nThe castration resistant subline LNCaP-19 was previously established from LNCaP cells (12). Cells were maintained as previously described (13). The LNCaP-19 cells were between passage 10 and 23 when used in the experiments. Passage 1 is defined as the first passage in our laboratory. The cells were tested and found free from mycoplasma.\nMale athymic Nude BALB/c mice (age 8 weeks) were purchased from Taconic (Lille Skensved, Denmark). For subcutaneous implantation, one million tumor cells suspended in 200 μl Matrigel (BD Bioscience, Bedford, Mass.) were inoculated on the flank of the mice. The tumor size was measured by a caliper once a week throughout the experiment and the tumor take was 75% in the untreated control group (n=12). In the tumor growth experiment, ABR-215050-dx (10 mg/kg/day) was administered via drinking water from day 7. To assure appropriate dose was given with no significant fluctuations, water consumption was monitored for each animal cage during the entire experiment. […] Animals were sacrificed when the average tumor size for the control group reached a volume of 900±100 mm^3 or when the tumor volume for an individual animal reached 1200 mm^3 The results are illustrated in FIG. 7."}, "[1]": {"assay": "In vivo pharmacokinetics in rat: plasma levels of parents and amide-N demethyl metabolite after 1:1 mixture", "conditions": "for Plasma level: peroral 2.5 mg/kg of each compound (1:1 mixture)", "description": "Therefore, the pharmacokinetic characteristics of the amide-N methyl deuterated ABR-215050 (herein below referred to as ABR-215050-dx), wherein the amide-N methyl moiety was tri-deuterated, compared to the non-deuterated parent compound were studied in rat. […] In other words: relative to ABR-215050, the in vivo formation of ABR-215691 was reduced to only 25% when ABR-215050-dx was used.\nA deuterated (also referred to as deuterium-enriched) ABR-215050 was synthesized, wherein the amide-N methyl moiety was trideuterated (ABR-215050-dx). This deuterated compound was diluted with non-deuterated ABR-215050 to a molar ratio of 1:1. The 1:1 equivalent molar mixture was administrated to rats in an in vivo experiment. Because of additional 13-carbon labeling in the quinoline scaffold, the formed amide-N demethyl metabolites could be measured selectively by means of HPLC-MS (High performance Liquid Chromatography with Mass Spectrometric detection). In Table 5, the plasma levels of ABR-215050-dx and ABR-215050 (in nM) measured in 4 different rats are shown, as well as the ratio of these two compounds."}, "CYP1A2": {"test_system": "CYP1A2", "assay": "In vivo CYP1A2 induction in rat, MROD activity of liver microsomes", "conditions": "rat, in vivo", "description": "as §1, §2, §3, §4, §5, §6, §7"}}, "note": "Where “and” joins values, the source holds several entries; their conditions need not be identical. Equal values may be shown once."}
{"smiles": "[2H]C([2H])([2H])N(C(=O)c1c(O)c2c(OC)cccc2n(C)c1=O)c1ccc(C(F)(F)F)cc1", "note": "[ABR-215050-dx, 4-Hydroxy-5-methoxy-N-deuteriomethyl-1-methyl-2-oxo-N-[(4-trifluoromethyl)phenyl]-1,2-dihydroquinoline-3-carboxamide]", "values": [{"measurement": "reduction of the fold induction of CYP1A1 versus ABR-215050", "setting": "CYP1A1; (42-11.5)/42×100%", "value": 73, "unit": "%"}, {"measurement": "CYP1A1 activity (EROD), Mean", "setting": "CYP1A1; group mean, 1 mg/kg perorally days 1-4", "value": 534, "unit": "pmol/mg prot/min"}, {"measurement": "mean fold induction of CYP1A1", "setting": "CYP1A1; group mean, versus water group", "value": 11.5}, {"measurement": "CYP1A1 activity (EROD)", "setting": "CYP1A1; individual rat, 1 mg/kg perorally days 1-4, liver microsomes 24 h after final dose, 1 mg/kg", "value": "556 pmol/mg prot/min and 511 pmol/mg prot/min"}, {"measurement": "CYP1A1 Fold induction", "setting": "CYP1A1; individual rat, versus water group", "value": "12 and 11"}, {"measurement": "anti-tumor effect (in words)", "setting": "LNCaP tumor", "value": "retains a high therapeutic activity"}, {"measurement": "Ratio of metabolite plasma levels, Mean", "setting": "[1]; mean of rats 1-4", "value": 0.26}, {"measurement": "Reduction of amide-N demethylation, Mean", "setting": "[1]; mean of rats 1-4", "value": 74.1, "unit": "%"}, {"measurement": "Plasma levels of ABR-215691 from the administered compound, Mean", "setting": "[1]; mean of rats 1-4 (1-4 h), peroral 2.5 mg/kg", "value": 74.8, "unit": "nM"}, {"measurement": "formation of demethylated metabolite compared to non-deuterium labeled ABR-215050 (in words)", "setting": "[1]; rat", "value": "diminished by as much as a factor of four"}, {"measurement": "in vivo formation of ABR-215691 relative to ABR-215050", "setting": "[1]; rat", "value": 25, "unit": "%"}, {"measurement": "Ratio ABR-215050-dx/ABR-215050 (plasma levels)", "setting": "[1]; rat No 1, 1 h", "value": 0.97}, {"measurement": "Ratio of metabolite plasma levels (ABR-215691 from ABR-215050-dx / from ABR-215050)", "setting": "[1]; rat No 1, 1 h", "value": 0.24}, {"measurement": "Reduction of amide-N demethylation", "setting": "[1]; rat No 1, 1 h", "value": 75.8, "unit": "%"}, {"measurement": "Plasma levels of ABR-215691 from the administered compound", "setting": "[1]; rat No 1, 1 h, peroral 2.5 mg/kg", "value": 64.0, "unit": "nM"}, {"measurement": "Plasma level", "setting": "[1]; rat No 1, 1 h", "value": 13394, "unit": "nM"}, {"measurement": "Ratio ABR-215050-dx/ABR-215050 (plasma levels)", "setting": "[1]; rat No 2, 2 h", "value": 0.99}, {"measurement": "Ratio of metabolite plasma levels (ABR-215691 from ABR-215050-dx / from ABR-215050)", "setting": "[1]; rat No 2, 2 h", "value": 0.30}, {"measurement": "Reduction of amide-N demethylation", "setting": "[1]; rat No 2, 2 h", "value": 70.5, "unit": "%"}, {"measurement": "Plasma levels of ABR-215691 from the administered compound", "setting": "[1]; rat No 2, 2 h, peroral 2.5 mg/kg", "value": 93.9, "unit": "nM"}, {"measurement": "Plasma level", "setting": "[1]; rat No 2, 2 h", "value": 13665, "unit": "nM"}, {"measurement": "Ratio ABR-215050-dx/ABR-215050 (plasma levels)", "setting": "[1]; rat No 3, 3 h", "value": 0.99}, {"measurement": "Ratio of metabolite plasma levels (ABR-215691 from ABR-215050-dx / from ABR-215050)", "setting": "[1]; rat No 3, 3 h", "value": 0.24}, {"measurement": "Reduction of amide-N demethylation", "setting": "[1]; rat No 3, 3 h", "value": 75.7, "unit": "%"}, {"measurement": "Plasma levels of ABR-215691 from the administered compound", "setting": "[1]; rat No 3, 3 h, peroral 2.5 mg/kg", "value": 46.6, "unit": "nM"}, {"measurement": "Plasma level", "setting": "[1]; rat No 3, 3 h", "value": 7322, "unit": "nM"}, {"measurement": "Ratio ABR-215050-dx/ABR-215050 (plasma levels)", "setting": "[1]; rat No 4, 4 h", "value": 1.00}, {"measurement": "Ratio of metabolite plasma levels (ABR-215691 from ABR-215050-dx / from ABR-215050)", "setting": "[1]; rat No 4, 4 h", "value": 0.25}, {"measurement": "Reduction of amide-N demethylation", "setting": "[1]; rat No 4, 4 h", "value": 74.6, "unit": "%"}, {"measurement": "Plasma levels of ABR-215691 from the administered compound", "setting": "[1]; rat No 4, 4 h, peroral 2.5 mg/kg", "value": 94.6, "unit": "nM"}, {"measurement": "Plasma level", "setting": "[1]; rat No 4, 4 h", "value": 17824, "unit": "nM"}, {"measurement": "mean fold induction of CYP1A2", "setting": "CYP1A2", "value": 5.5}, {"measurement": "reduction of the fold induction of CYP1A2 versus ABR-215050", "setting": "CYP1A2", "value": 68, "unit": "%"}, {"measurement": "CYP1A2 activity (MROD), Mean", "setting": "CYP1A2; 1 mg/kg", "value": 111, "unit": "pmol/mg prot/min"}]}
